Source: US20100183504A1, “MULTIMODAL IMAGING PROBES FOR IN VIVO TARGETED AND NON-TARGETED IMAGING AND THERAPEUTICS” (priority 2007, published 2010)

Assays:
Format in all cases: physicochemical
[1] = Relaxivities summarised over the field strengths investigated or without stated field; conditions: three field strengths investigated
Description: T1 and T2 relaxation time measurements were performed on Bruker Minispecs operating at 1H resonance frequencies of 20 and 60 MHz. An inversion recovery pulse sequence was employed for T1 relaxation time measurements using a monoexponential fit to the recovery curve. For each experiment, 4 scans were collected with a recycle delay of 15 s. To obtain the recovery curve, 50 evenly spaced points were collected with the first point acquired at 5 ms. The last time point was collected at 4000 ms for short T1 samples and 10,000 ms for samples with long T1 so that each sample was allowed to fully recover. The receiver gain for each sample was set so that the signal amplitude was approximately 60%.
(§1) The T2 times were calculated from a monoexponential fit to a spin echo decay curve using a Carr-Purcell-Meiboom-Gill (CPMG) pulse sequence. […]
(§2) All MRI experiments were performed on a Bruker Avance 400 MHz (9.4 T) spectrometer equipped with a high-resolution Micro5 microimaging system with a 25 mm RF coil. […] We also obtained quantitative evaluation of the longitudinal relaxation times, T1, by plotting M/Mo versus log(τ), that is, the residual magnetization as a function of the recovery time. T1 values were measured by fitting M(τ)/Mo to an single-exponential growth curve: (M(τ)/Mo)=(1−[…]). Transverse relaxation times were determined by a plot of log-(M/Mo) versus τ. […]

[2] = Gd3+ release from DOTA, colorimetric Arsenazo test; conditions: several weeks
Description: The synthesis of Gd-DOTA (i.e., one Gd3+ ion chelated by DOTA) was performed according to a procedure adapted from previous reports (Wang et al. (1992) Inorg. Chem. 31: 1095-1099; Prantner et al. (2003) Mol. Imaging 2: […]). We dissolved p-NH2-Bn-DOTA (2-(4-aminobenzyl)-1,4,7,10-tet-raazacyclododecane-1,4,7,10-tetraacetic acid) in water and add an aqueous solution of GdCl3 (Sigma-Alrich), so as to have a 1:0.98 molar mixture of DOTA/Gd3+ and approximately 0.2 M concentration in DOTA. The solution was heated a few minutes to 80° C. to favor coordination of Gd3+ with the tetraazacy-clododecane ring. The pH of the solution droped below 1. We brought the pH to 3.5-4 by adding aliquots of 7 M NaOH and heat the solution back to 80° C. for a few minutes. At this early stage, heating produces acidification of the solution. […] At that stage, the solution was kept at 80° C. for 3 h. Completion of the Gd^3+ chelation was confirmed by a colorimetric assay using Arsenazo dye (Sigma-Alrich). This colorimetric dye reacts to the presence of unbound or free Gd^3+. The dye natural color is purple, but if it binds to Gd^3+ its color turns to blue. […] The stability of the Gd-DOTA has been studied using the colorimetric Arsenazo test.

[3] = T1 and T2 relaxation time measurements on Bruker Minispecs at 20 and 60 MHz; conditions: 20-100 MHz; comparison line
Excerpt: After extensive purification from unbound Gd-DOTA, these samples were chemically analyzed by inductively coupled plasma mass spectrometry (ICP-MS) by measuring the total amount of Gd and Cd or Au ions. By assuming bulk parameters of the CdSe or Au lattice and the size of the nanoparticles (using tabulated values linking the size of the QDs to its optical properties, or the claimed size for Au nanocrystals), we deduced the number of Gd per silanized nanoparticle. The number of Gd^3+ […] SiO2-coated nanoparticle varied from 3 to greater than 300 and depends on the size of the initial nanoparticles and the conditions used during the conjugation of Gd-DOTA to the silanized nanoparticles. Notice that the same samples were used for MRI study and ICP-MS analysis.
T1 and T2 relaxation time measurements were performed on Bruker Minispecs operating at 1H resonance frequencies of 20 and 60 MHz. An inversion recovery pulse sequence was employed for T1 relaxation time measurements using a monoexponential fit to the recovery curve. For each experiment, 4 scans were collected with a recycle delay of 15 s. To obtain the recovery curve, 50 evenly spaced points were collected with the first point acquired at 5 ms. […]
as §1

[4] = T1/T2 relaxation MRI on Bruker Avance 400 MHz (9.4 T) microimaging system; conditions: measured simultaneously with the nanoparticles at 400 MHz; repeated
Description: The concentrations of our solutions are given in terms of silanized nanoparticle concentration and not in terms of Gd^3+ present in solution because the latter is attached to the nanoparticles. At 1 μM concentration, the average distance between nanoparticles is over 100 nm. We determined the concentration of the nanoparticle solution by measuring the UV-vis spectrum. […] We used the following numbers: QD exciton peak at approximately 610 nm, fluorescence emission at approximately 630 nm, full width at half-maximum (fwhm) of 38 nm, extinction coefficient used 620 000 M^−1cm^−1 following published reports (Yu, et al. (2003) Chem. Mater. 15: 2854-2860). […] These latter numbers were computed from the concentrations given by the manufacturer and the OD of citrate-stabilized Au colloids measured directly out of the bottle.
as §2

With Gd-DOTA the “relaxivities of unbound Gd-DOTA” value [1] was 3 to 12 mM⁻¹ s⁻¹, the “Gd^3+ release from the DOTA ring” value [2] was “No Gd^3+ release” and the “r1 Gd^3+ ion relaxivity of unbound Gd-DOTA” value [3] was 3 to 5 mM⁻¹ s⁻¹. The “r1 Gd^3+ ion relaxivity of unbound Gd-DOTA” value [4] was 3.7 ± 0.04 mM⁻¹ s⁻¹ and the “r2 Gd^3+ ion relaxivity of unbound Gd-DOTA” value [4] was 3.8 ± 0.2 mM⁻¹ s⁻¹.
